Results reported in ChEMBL document CHEMBL1135265, “Squaric acid derivatives as VLA-4 integrin antagonists” (Bioorg Med Chem Lett, 2002).

Key:
[1] = Rate constant (k) of clearance from isolated perfused rat liver (IPRL); format: ADME
[2] = target: T1, Integrin alpha-4/beta-1 (Homo sapiens, UniProt P05556+P13612); assay: Inhibition of binding of Very late antigen 4/vascular cell adhesion molecule 1 in a protein-based ligand binding assay; format: protein-complex assay
[3] = target: T1, Integrin alpha-4/beta-1; assay: Inhibition of binding of Very late antigen 4/vascular cell adhesion molecule 1 in a cell based ligand binding assay (Jurkat cells)
[4] = target: T1, Integrin alpha-4/beta-1; assay: Inhibition of very late antigen-4 (VLA-4)/vascular cell adhesion molecule-1(VCAM -1) interaction; format: protein-complex assay
[5] = target: T1, Integrin alpha-4/beta-1; assay: Inhibition of Jurkat cell VLA-4 adhesion to VCAM-1; format: cell-based

T1 sequence (P05556 whole entry): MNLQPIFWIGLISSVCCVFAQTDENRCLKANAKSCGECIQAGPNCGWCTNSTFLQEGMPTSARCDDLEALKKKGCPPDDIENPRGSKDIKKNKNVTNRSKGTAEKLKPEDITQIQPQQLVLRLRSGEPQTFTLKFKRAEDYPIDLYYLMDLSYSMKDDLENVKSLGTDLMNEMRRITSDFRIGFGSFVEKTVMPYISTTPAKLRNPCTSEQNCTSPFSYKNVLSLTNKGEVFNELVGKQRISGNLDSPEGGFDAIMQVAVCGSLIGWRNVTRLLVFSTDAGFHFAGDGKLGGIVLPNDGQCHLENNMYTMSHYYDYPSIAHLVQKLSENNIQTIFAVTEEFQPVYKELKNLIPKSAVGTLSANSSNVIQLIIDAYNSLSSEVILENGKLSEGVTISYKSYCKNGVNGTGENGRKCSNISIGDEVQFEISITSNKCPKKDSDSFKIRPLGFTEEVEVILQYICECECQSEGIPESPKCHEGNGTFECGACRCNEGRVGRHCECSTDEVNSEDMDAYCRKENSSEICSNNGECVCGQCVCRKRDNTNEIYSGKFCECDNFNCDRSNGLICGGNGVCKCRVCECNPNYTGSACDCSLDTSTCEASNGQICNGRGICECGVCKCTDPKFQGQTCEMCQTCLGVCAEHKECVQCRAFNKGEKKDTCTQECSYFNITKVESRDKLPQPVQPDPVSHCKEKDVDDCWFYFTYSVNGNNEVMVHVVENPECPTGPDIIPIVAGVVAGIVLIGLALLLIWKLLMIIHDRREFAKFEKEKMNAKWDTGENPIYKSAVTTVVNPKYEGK
T1 sequence (P13612 whole entry): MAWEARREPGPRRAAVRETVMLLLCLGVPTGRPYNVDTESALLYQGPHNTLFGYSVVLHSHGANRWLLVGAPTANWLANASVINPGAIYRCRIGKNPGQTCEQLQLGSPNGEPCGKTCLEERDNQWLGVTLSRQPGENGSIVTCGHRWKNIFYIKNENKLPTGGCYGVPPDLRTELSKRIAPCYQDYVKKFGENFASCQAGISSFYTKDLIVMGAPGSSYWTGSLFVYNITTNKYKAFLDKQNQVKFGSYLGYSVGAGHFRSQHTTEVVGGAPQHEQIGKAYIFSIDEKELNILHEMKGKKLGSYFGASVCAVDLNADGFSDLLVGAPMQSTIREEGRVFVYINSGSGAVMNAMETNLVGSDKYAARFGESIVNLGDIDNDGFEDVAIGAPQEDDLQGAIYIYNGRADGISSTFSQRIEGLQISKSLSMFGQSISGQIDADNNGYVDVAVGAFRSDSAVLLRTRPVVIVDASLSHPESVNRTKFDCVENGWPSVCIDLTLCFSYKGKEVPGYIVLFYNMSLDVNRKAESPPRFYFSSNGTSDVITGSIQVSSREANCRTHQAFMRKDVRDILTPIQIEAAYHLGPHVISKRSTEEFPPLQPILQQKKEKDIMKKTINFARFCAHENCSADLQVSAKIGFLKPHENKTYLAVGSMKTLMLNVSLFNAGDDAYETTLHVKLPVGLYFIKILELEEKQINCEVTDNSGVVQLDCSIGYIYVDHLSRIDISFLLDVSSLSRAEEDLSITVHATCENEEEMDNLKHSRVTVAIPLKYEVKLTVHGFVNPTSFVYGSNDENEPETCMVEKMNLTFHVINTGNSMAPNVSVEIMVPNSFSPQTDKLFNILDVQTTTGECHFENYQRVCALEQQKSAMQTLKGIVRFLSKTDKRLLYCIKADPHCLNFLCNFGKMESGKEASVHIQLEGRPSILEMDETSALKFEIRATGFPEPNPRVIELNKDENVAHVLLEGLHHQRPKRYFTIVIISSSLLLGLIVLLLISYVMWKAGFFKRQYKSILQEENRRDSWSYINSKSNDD

Compound CC(C)/N=c1\c(O)c(O)\c1=N/[C@@H](Cc1ccc(NC(=O)c2c(Cl)cncc2Cl)cc1)C(=O)O has a k el [1] of 0.000722 s⁻¹, an IC50 [2] of 1 nM and an IC50 [3] of 95 nM.

CC(C)C/N=c1\c(O)c(O)\c1=N/[C@@H](Cc1ccc(NC(=O)c2c(Cl)cncc2Cl)cc1)C(=O)O showed a k el [1] of 0.000361 s⁻¹, an IC50 [2] of 0.5 nM and an IC50 [3] of 85 nM.

With CCC/N=c1\c(O)c(O)\c1=N/[C@@H](Cc1ccc(OCc2c(Cl)cccc2Cl)cc1)C(=O)O the IC50 [4] was 67 nM and the IC50 [5] was 18300 nM.

In the case of CCN(CC)c1c(N[C@@H](Cc2ccc(-c3c(OC)cccc3OC)cc2)C(=O)O)c(=O)c1=O, the k el [1] is reported as 0.00108 s⁻¹, the IC50 [2] is reported as 0.6 nM and the IC50 [3] is reported as 180 nM.

CCN(CC)c1c(N[C@@H](Cc2ccc(Oc3ncccn3)cc2)C(=O)O)c(=O)c1=O showed a k el [1] of 0.00075 s⁻¹, an IC50 [2] of 1.5 nM and an IC50 [3] of 2300 nM.

In the case of O=C(Nc1ccc(C[C@H](/N=c2\c(O)c(O)\c2=N/C2CC2)C(=O)O)cc1)c1c(Cl)cncc1Cl, the k el [1] is reported as 0.000444 s⁻¹, the IC50 [2] is reported as 1.5 nM and the IC50 [3] is reported as 250 nM.

O=C(Nc1ccc(C[C@H](/N=c2/c(N3CCSCC3)c(O)c2=O)C(=O)O)cc1)c1c(Cl)cncc1Cl showed a k el [1] of 0.00158 s⁻¹, an IC50 [2] of 0.3 nM and an IC50 [3] of 3.1 nM.

For CCC(C)/N=c1\c(O)c(O)\c1=N/[C@@H](Cc1ccc(NC(=O)c2c(Cl)cncc2Cl)cc1)C(=O)O (stereo partly drawn), the k el [1] was 0.000861 s⁻¹, the IC50 [2] was 0.5 nM and the IC50 [3] was 160 nM.

Work on O=C(Nc1ccc(C[C@H](/N=c2\c(O)c(O)\c2=N/C2CCC2)C(=O)O)cc1)c1c(Cl)cncc1Cl yielded a k el [1] of 0.000139 s⁻¹, an IC50 [2] of 2.6 nM and an IC50 [3] of 155 nM.

Work on CCCN(C)c1c(N[C@@H](Cc2ccc(NC(=O)c3c(Cl)cncc3Cl)cc2)C(=O)O)c(=O)c1=O yielded a k el [1] of 0.00125 s⁻¹, an IC50 [2] of 0.2 nM and an IC50 [3] of 13 nM.

In the case of CCC/N=c1\c(O)c(O)\c1=N/[C@@H](Cc1ccc(-c2c(OC)cccc2OC)cc1)C(=O)O, the k el [1] is reported as 0.000194 s⁻¹, the IC50 [2] is reported as 2.1 nM and the IC50 [3] is reported as 710 nM.

In the case of CCN1CCN(c2c(N[C@@H](Cc3ccc(NC(=O)c4c(Cl)cncc4Cl)cc3)C(=O)O)c(=O)c2=O)CC1, the k el [1] is reported as 0.00103 s⁻¹, the IC50 [2] is reported as 0.5 nM and the IC50 [3] is reported as 60 nM.

With CC(C)(C)/N=c1\c(O)c(O)\c1=N/[C@@H](Cc1ccc(NC(=O)c2c(Cl)cncc2Cl)cc1)C(=O)O the k el [1] was 0.000972 s⁻¹, the IC50 [2] was 3.5 nM and the IC50 [3] was 690 nM.

Work on O=C(Nc1ccc(C[C@H](/N=c2\c(O)c(O)\c2=N/Cc2ccccc2)C(=O)O)cc1)c1c(Cl)cncc1Cl yielded a k el [1] of 0.00117 s⁻¹, an IC50 [2] of 3.7 nM and an IC50 [3] of 320 nM.

Work on O=C(Nc1ccc(C[C@H](/N=c2/c(N3CCCCC3)c(O)c2=O)C(=O)O)cc1)c1c(Cl)cncc1Cl yielded a k el [1] of 0.00131 s⁻¹, an IC50 [2] of 0.4 nM and an IC50 [3] of 8.4 nM.

In the case of CCN(CC)c1c(N[C@@H](Cc2ccc(NC(=O)c3c(Cl)cncc3Cl)cc2)C(=O)O)c(=O)c1=O, the k el [1] is reported as 0.00161 s⁻¹, the IC50 [2] is reported as 0.4 nM and the IC50 [3] is reported as 3.5 nM.

For CCCC/N=c1\c(O)c(O)\c1=N/[C@@H](Cc1ccc(NC(=O)c2c(Cl)cncc2Cl)cc1)C(=O)O, the k el [1] was 0.000361 s⁻¹, the IC50 [2] was 0.4 nM and the IC50 [3] was 130 nM.

In the case of CCN(CC)c1c(N[C@@H](Cc2ccc(-c3ccccc3OC)cc2)C(=O)O)c(=O)c1=O, the k el [1] is reported as 0.000611 s⁻¹, the IC50 [2] is reported as 1.2 nM and the IC50 [3] is reported as 1160 nM.

With CCC/N=c1\c(O)c(O)\c1=N/[C@@H](Cc1ccc(NC(=O)c2c(Cl)cncc2Cl)cc1)C(=O)O the k el [1] was 2.78e-05 s⁻¹, the IC50 [2] was 1.5 nM and the IC50 [3] was 120 nM.

Compound COCC/N=c1\c(O)c(O)\c1=N/[C@@H](Cc1ccc(NC(=O)c2c(Cl)cncc2Cl)cc1)C(=O)O has a k el [1] of 0.0005 s⁻¹, an IC50 [2] of 1.2 nM and an IC50 [3] of 75 nM.

C=CC/N=c1\c(O)c(O)\c1=N/[C@@H](Cc1ccc(NC(=O)c2c(Cl)cncc2Cl)cc1)C(=O)O gave a k el [1] of 0.000111 s⁻¹, an IC50 [2] of 1 nM and an IC50 [3] of 120 nM.

CCCCN(CCCC)c1c(N[C@@H](Cc2ccc(NC(=O)c3c(Cl)cncc3Cl)cc2)C(=O)O)c(=O)c1=O gave a k el [1] of 0.00183 s⁻¹, an IC50 [2] of 2 nM and an IC50 [3] of 5.7 nM.

O=C(Nc1ccc(C[C@H](/N=c2/c(N3CCOCC3)c(O)c2=O)C(=O)O)cc1)c1c(Cl)cncc1Cl gave a k el [1] of 0.00139 s⁻¹, an IC50 [2] of 0.5 nM and an IC50 [3] of 11 nM.

O=C(Nc1ccc(C[C@H](/N=c2\c(O)c(O)\c2=N/c2ccccc2)C(=O)O)cc1)c1c(Cl)cncc1Cl showed a k el [1] of 0.000306 s⁻¹, an IC50 [2] of 50 nM and an IC50 [3] of 845 nM.

In the case of O=C(Nc1ccc(C[C@H](/N=c2\c(O)c(O)\c2=N/C2CCCC2)C(=O)O)cc1)c1c(Cl)cncc1Cl, the k el [1] is reported as 0.000139 s⁻¹, the IC50 [2] is reported as 9 nM and the IC50 [3] is reported as 290 nM.

Work on O=C(Nc1ccc(C[C@H](/N=c2\c(O)c(O)\c2=N/CCC(F)(F)F)C(=O)O)cc1)c1c(Cl)cncc1Cl yielded a k el [1] of 0.000389 s⁻¹ and an IC50 [3] of 90 nM.

O=C(Nc1ccc(C[C@H](/N=c2\c(O)c(O)\c2=N/CCCC(F)(F)F)C(=O)O)cc1)c1c(Cl)cncc1Cl showed a k el [1] of 0.000306 s⁻¹, an IC50 [2] of 1 nM and an IC50 [3] of 370 nM.

Work on CC/N=c1\c(O)c(O)\c1=N/[C@@H](Cc1ccc(NC(=O)c2c(Cl)cncc2Cl)cc1)C(=O)O yielded a k el [1] of 0.000556 s⁻¹, an IC50 [2] of 0.6 nM and an IC50 [3] of 425 nM.

CCN(C)c1c(N[C@@H](Cc2ccc(NC(=O)c3c(Cl)cncc3Cl)cc2)C(=O)O)c(=O)c1=O gave a k el [1] of 0.00136 s⁻¹, an IC50 [2] of 0.2 nM and an IC50 [3] of 100 nM.

Compound CCN(CC)c1c(N[C@@H](Cc2ccc(OCc3c(Cl)cccc3Cl)cc2)C(=O)O)c(=O)c1=O has a k el [1] of 0.00108 s⁻¹, an IC50 [2] of 25 nM and an IC50 [3] of 12400 nM.

With CCCC(C)/N=c1\c(O)c(O)\c1=N/[C@@H](Cc1ccc(NC(=O)c2c(Cl)cncc2Cl)cc1)C(=O)O (stereo partly drawn) the k el [1] was 0.000667 s⁻¹, the IC50 [2] was 0.6 nM and the IC50 [3] was 50 nM.

C/N=c1\c(O)c(O)\c1=N/[C@@H](Cc1ccc(NC(=O)c2c(Cl)cncc2Cl)cc1)C(=O)O gave a k el [1] of 0.00025 s⁻¹, an IC50 [2] of 0.9 nM and an IC50 [3] of 990 nM.

For CCC/N=c1\c(O)c(O)\c1=N/[C@@H](Cc1ccc(Oc2ncccn2)cc1)C(=O)O, the k el [1] was 0.000167 s⁻¹, the IC50 [2] was 6.9 nM and the IC50 [3] was 8200 nM.

CCC/N=c1\c(O)c(O)\c1=N/[C@@H](Cc1ccc(-c2ccccc2OC)cc1)C(=O)O gave an IC50 [2] of 6.7 nM and an IC50 [3] of 10800 nM.

Compound O=C(Nc1ccc(C[C@H](/N=c2/c(N3CCNCC3)c(O)c2=O)C(=O)O)cc1)c1c(Cl)cncc1Cl has a k el [1] of 0.00125 s⁻¹, an IC50 [2] of 0.4 nM and an IC50 [3] of 40 nM.

Compound CN(C)c1c(N[C@@H](Cc2ccc(NC(=O)c3c(Cl)cncc3Cl)cc2)C(=O)O)c(=O)c1=O has a k el [1] of 0.00128 s⁻¹, an IC50 [2] of 0.5 nM and an IC50 [3] of 590 nM.

For CCCCC/N=c1\c(O)c(O)\c1=N/[C@@H](Cc1ccc(NC(=O)c2c(Cl)cncc2Cl)cc1)C(=O)O, the k el [1] was 0.00025 s⁻¹, the IC50 [2] was 1 nM and the IC50 [3] was 225 nM.
